Measurements from patent publication US20230363391A1, “Biocidal Composition and Method” (ARXADA AG, priority 2020, published 2023).
Marks after values point to notes of the source that are not given here.

Experiments:
[1] = test system: Pseudomonas aeruginosa, Escherichia coli, Enterobacter cloacae, Acinetobacter calcoaceticus; experiment: In-can challenge test, modified ASTM D2574-97 (Table 1); type: cell-based
Experimental: (§1) Various formulations were made in accordance with the present disclosure and tested for performance. In one challenge test, the efficacy of dicyandiamide as an adjuvant for BIT was evaluated using modified ASTM D2574-97 “Standard Test Method for Resistance of Emulsion Paints in the Container to Attack by Microorganisms” with higher inoculation volumes and frequency. A standard consortium of four (4) bacterial populations: Pseudomonas aeruginosa, Escherichia coli, Enterobacter cloacae, Acinetobacter calcoaceticus was used to inoculate three (3) different samples at ten percent (10%), five percent (5%), or two and a half percent (2.5%) of the sample size. At twenty-four (24) hours and seventy-two (72) hours after each inoculation, a portion of each sample was streaked on tryptic soy agar. A dilution plate count was performed at the last seventy-two (72) hour time point.
(§2) Example data provided in Tables 1, 2 and 3 should be understood as indicating the degree of microbial growth observed for a given data point unless otherwise indicated. In particular, each plate is ranked from 0 through 5c (i.e., one of 0, 1, 2, 3, 4, 5, or 5c) according to the degree of observed microbial growth, where: a “0” ranking indicates no growth; a “1” ranking indicates one (1) through five (5) observed colony forming unit (cfu), i.e., the plate was very lightly contaminated; a “2” ranking indicates six (6) through fifteen (15) cfu, i.e., the plate was lightly contaminated; a “3” ranking indicates sixteen (16) through thirty (30) cfu, i.e., the plate was moderately contaminated; a “4” ranking indicates thirty-one (31) through forty-five (45) cfu, i.e., the plate was heavily contaminated; a “5” ranking indicates greater than (45) cfu, i.e., the plate was severely contaminated; and a “5c” ranking indicates confluent growth, i.e., the plate was very severely contaminated. Thus, for instance, Table 1, Challenge 1 at 24 h for BIT 50 ppm has a value of 5 indicating greater than forty-five (45) cfu were observed. As another example for illustration, Table 1, Challenge 1 at 24 h for dicyandiamide 5,000 ppm + BIT 50 ppm has a value of 1 indicating one (1) through five (5) cfu was observed.

[2] = test system: Pseudomonas aeruginosa, Escherichia coli, Enterobacter cloacae, Acinetobacter calcoaceticus; experiment: Repeat in-can challenge test, same conditions (Table 2); type: cell-based
Experimental: as §1, §2

[3] = test system: bacteria, fungi, and yeast; conditions: background statement; cited from earlier work
[4] = neutral pH; cited from earlier work
microbial growth = experiment: In-can challenge test of dicyandiamide as adjuvant for MIT (Table 3); type: cell-based; conditions: for Passing result of challenge test (asterisk on sample) / 1st 24, degree of microbial growth (ranking) / 1st 72, degree of microbial growth (ranking) / 2nd 72, degree of microbial growth (ranking) / 3rd 24, degree of microbial growth (ranking) / 3rd 72, degree of microbial growth (ranking): Dicyandiamide 0
Source text: However, using a combination of MIT and dicyandiamide can allow for effective microbial control at MIT concentrations as low as 20 ppm.
as §2

[5] = MIT - 50 30 ppm (MIT 15 ppm as active)
[6] = MIT - 50 40 ppm (MIT 20 ppm as active)
[7] = MIT - 50 50 ppm (MIT 25 ppm as active)
[8] = MIT - 50 60 ppm (MIT 30 ppm as active)
[9] = MIT - 50 70 ppm (MIT 35 ppm as active)

Compound: O=c1[nH]sc2ccccc12 [BIT, 1,2-benzisothiazolin-3-one]
- Challenge 1 10% 24 h, degree of microbial growth (ranking) ([1]; BIT 50 ppm): 5 (greater than (45) cfu, i.e., the plate was severely contaminated)
- Challenge 1 10% 72 h, degree of microbial growth (ranking) ([1]; BIT 50 ppm): 2 (six (6) through fifteen (15) cfu, i.e., the plate was lightly contaminated)
- Challenge 2 5% 72 h, degree of microbial growth (ranking) ([1]; BIT 50 ppm): 5 (greater than (45) cfu, i.e., the plate was severely contaminated)
- Challenge 3 2.5% 24 h, degree of microbial growth (ranking) ([1]; BIT 50 ppm): 5c
- Challenge 3 2.5% 72 h, dilution plate count ([1]; BIT 50 ppm): 7.8×10^6
- Challenge 1 10% 24 h, degree of microbial growth (ranking) ([1]; BIT 100 ppm): 5 (greater than (45) cfu, i.e., the plate was severely contaminated)
- Challenge 1 10% 72 h, degree of microbial growth (ranking) ([1]; BIT 100 ppm): 0
- Challenge 2 5% 72 h, degree of microbial growth (ranking) ([1]; BIT 100 ppm): 0
- Challenge 3 2.5% 24 h, degree of microbial growth (ranking) ([1]; BIT 100 ppm): 5 (greater than (45) cfu, i.e., the plate was severely contaminated)
- Challenge 3 2.5% 72 h, dilution plate count ([1]; BIT 100 ppm): 5.0×10^1
- Challenge 1 10% 24 h, degree of microbial growth (ranking) ([2]; BIT 35 ppm): 5c
- Challenge 1 10% 72 h, degree of microbial growth (ranking) ([2]; BIT 35 ppm): 5c
- Challenge 2 5% 72 h, degree of microbial growth (ranking) ([2]; BIT 35 ppm): 5c
- Challenge 3 2.5% 24 h, degree of microbial growth (ranking) ([2]; BIT 35 ppm): 5c
- Challenge 3 2.5% 72 h, dilution plate count ([2]; BIT 35 ppm): 3.0×10^6
- Challenge 1 10% 24 h, degree of microbial growth (ranking) ([2]; BIT 50 ppm): 5c
- Challenge 1 10% 72 h, degree of microbial growth (ranking) ([2]; BIT 50 ppm): 5c
- Challenge 2 5% 72 h, degree of microbial growth (ranking) ([2]; BIT 50 ppm): 5c
- Challenge 3 2.5% 24 h, degree of microbial growth (ranking) ([2]; BIT 50 ppm): 5c
- Challenge 3 2.5% 72 h, dilution plate count ([2]; BIT 50 ppm): 6.6×10^6
- Challenge 1 10% 24 h, degree of microbial growth (ranking) ([2]; BIT 65 ppm): 5c
- Challenge 1 10% 72 h, degree of microbial growth (ranking) ([2]; BIT 65 ppm): 3 (sixteen (16) through thirty (30) cfu, i.e., the plate was moderately contaminated)
- Challenge 2 5% 72 h, degree of microbial growth (ranking) ([2]; BIT 65 ppm): 5c
- Challenge 3 2.5% 24 h, degree of microbial growth (ranking) ([2]; BIT 65 ppm): 5c
- Challenge 3 2.5% 72 h, dilution plate count ([2]; BIT 65 ppm): 1.0×10^6
- Challenge 1 10% 24 h, degree of microbial growth (ranking) ([2]; BIT 75 ppm): 5c
- Challenge 1 10% 72 h, degree of microbial growth (ranking) ([2]; BIT 75 ppm): 0
- Challenge 2 5% 72 h, degree of microbial growth (ranking) ([2]; BIT 75 ppm): 5 (greater than (45) cfu, i.e., the plate was severely contaminated)
- Challenge 3 2.5% 24 h, degree of microbial growth (ranking) ([2]; BIT 75 ppm): 5c
- Challenge 3 2.5% 72 h, dilution plate count ([2]; BIT 75 ppm): 2.8×10^5
- Challenge 1 10% 24 h, degree of microbial growth (ranking) ([2]; BIT 100 ppm): 5c
- Challenge 1 10% 72 h, degree of microbial growth (ranking) ([2]; BIT 100 ppm): 0
- Challenge 2 5% 72 h, degree of microbial growth (ranking) ([2]; BIT 100 ppm): 5 (greater than (45) cfu, i.e., the plate was severely contaminated)
- Challenge 3 2.5% 24 h, degree of microbial growth (ranking) ([2]; BIT 100 ppm): 5c
- Challenge 3 2.5% 72 h, dilution plate count ([2]; BIT 100 ppm): 1.8×10^7
- Amount required for a reliable and quick biocidal activity [3]: ≤ 500 ppm

Compound: Zinc pyrithione [ZPT]
- Solubility in water [4]: 8 ppm

Compound: N#CN=C(N)N [Dicyandiamide, 2-cyanoguanidine]
- Challenge 1 10% 24 h, degree of microbial growth (ranking) ([1]; Dicyandiamide 5,000 ppm): 5c
- Challenge 1 10% 72 h, degree of microbial growth (ranking) ([1]; Dicyandiamide 5,000 ppm): 5c
- Challenge 2 5% 72 h, degree of microbial growth (ranking) ([1]; Dicyandiamide 5,000 ppm): 5c
- Challenge 3 2.5% 24 h, degree of microbial growth (ranking) ([1]; Dicyandiamide 5,000 ppm): 5c
- Challenge 3 2.5% 72 h, dilution plate count ([1]; Dicyandiamide 5,000 ppm): 8.0×10^6
- Challenge 1 10% 24 h, degree of microbial growth (ranking) ([1]; Dicyandiamide 10,000 ppm): 5c
- Challenge 1 10% 72 h, degree of microbial growth (ranking) ([1]; Dicyandiamide 10,000 ppm): 1 (one (1) through five (5) observed colony forming unit (cfu), i.e., the plate was very lightly contaminated)
- Challenge 2 5% 72 h, degree of microbial growth (ranking) ([1]; Dicyandiamide 10,000 ppm): 5 (greater than (45) cfu, i.e., the plate was severely contaminated)
- Challenge 3 2.5% 24 h, degree of microbial growth (ranking) ([1]; Dicyandiamide 10,000 ppm): 5 (greater than (45) cfu, i.e., the plate was severely contaminated)
- Challenge 3 2.5% 72 h, dilution plate count ([1]; Dicyandiamide 10,000 ppm): 4.2×10^6
- Efficacy in challenge test compared to the blank ([1]; dicyandiamide alone, not in combination with BIT, Table 1): no significant difference compared to the blank
- Challenge 1 10% 24 h, degree of microbial growth (ranking) ([2]; Dicyandiamide 5,000 ppm): 5c
- Challenge 1 10% 72 h, degree of microbial growth (ranking) ([2]; Dicyandiamide 5,000 ppm): 5c
- Challenge 2 5% 72 h, degree of microbial growth (ranking) ([2]; Dicyandiamide 5,000 ppm): 5c
- Challenge 3 2.5% 24 h, degree of microbial growth (ranking) ([2]; Dicyandiamide 5,000 ppm): 5c
- Challenge 3 2.5% 72 h, dilution plate count ([2]; Dicyandiamide 5,000 ppm): 2.4×10^7

Compound: Cn1sccc1=O [MIT - 50, 2-methyl-4-isothiazolin-3-one]
- Passing result of challenge test (asterisk on sample) (microbial growth; MIT 30 ppm as active): MIT - 50 60 ppm (30)*
- Passing result of challenge test (asterisk on sample) (microbial growth; MIT 35 ppm as active): MIT - 50 70 ppm (35)*
- 1st 24, degree of microbial growth (ranking) (microbial growth; [5]): 5 (greater than (45) cfu, i.e., the plate was severely contaminated)
- 1st 72, degree of microbial growth (ranking) (microbial growth; [5]): 5 (greater than (45) cfu, i.e., the plate was severely contaminated)
- 2nd 72, degree of microbial growth (ranking) (microbial growth; [5]): 5 (greater than (45) cfu, i.e., the plate was severely contaminated)
- 3rd 24, degree of microbial growth (ranking) (microbial growth; [5]): 5 (greater than (45) cfu, i.e., the plate was severely contaminated)
- 3rd 72, degree of microbial growth (ranking) (microbial growth; [5]): 5 (greater than (45) cfu, i.e., the plate was severely contaminated)
- 1st 24, degree of microbial growth (ranking) (microbial growth; [6]): 5 (greater than (45) cfu, i.e., the plate was severely contaminated)
- 1st 72, degree of microbial growth (ranking) (microbial growth; [6]): 5 (greater than (45) cfu, i.e., the plate was severely contaminated)
- 2nd 72, degree of microbial growth (ranking) (microbial growth; [6]): 5 (greater than (45) cfu, i.e., the plate was severely contaminated)
- 3rd 24, degree of microbial growth (ranking) (microbial growth; [6]): 5 (greater than (45) cfu, i.e., the plate was severely contaminated)
- 3rd 72, degree of microbial growth (ranking) (microbial growth; [6]): 5 (greater than (45) cfu, i.e., the plate was severely contaminated)
- 1st 24, degree of microbial growth (ranking) (microbial growth; [7]): 5 (greater than (45) cfu, i.e., the plate was severely contaminated)
- 1st 72, degree of microbial growth (ranking) (microbial growth; [7]): 2 (six (6) through fifteen (15) cfu, i.e., the plate was lightly contaminated)
- 2nd 72, degree of microbial growth (ranking) (microbial growth; [7]): 5 (greater than (45) cfu, i.e., the plate was severely contaminated)
- 3rd 24, degree of microbial growth (ranking) (microbial growth; [7]): 5 (greater than (45) cfu, i.e., the plate was severely contaminated)
- 3rd 72, degree of microbial growth (ranking) (microbial growth; [7]): 5 (greater than (45) cfu, i.e., the plate was severely contaminated)
- 1st 24, degree of microbial growth (ranking) (microbial growth; [8]): 5 (greater than (45) cfu, i.e., the plate was severely contaminated)
- 1st 72, degree of microbial growth (ranking) (microbial growth; [8]): 0
- 2nd 72, degree of microbial growth (ranking) (microbial growth; [8]): 5 (greater than (45) cfu, i.e., the plate was severely contaminated)
- 3rd 24, degree of microbial growth (ranking) (microbial growth; [8]): 5 (greater than (45) cfu, i.e., the plate was severely contaminated)
- 3rd 72, degree of microbial growth (ranking) (microbial growth; [8]): 0
- 1st 24, degree of microbial growth (ranking) (microbial growth; [9]): 5 (greater than (45) cfu, i.e., the plate was severely contaminated)
- 1st 72, degree of microbial growth (ranking) (microbial growth; [9]): 0
- 2nd 72, degree of microbial growth (ranking) (microbial growth; [9]): 0
- 3rd 24, degree of microbial growth (ranking) (microbial growth; [9]): 5 (greater than (45) cfu, i.e., the plate was severely contaminated)
- 3rd 72, degree of microbial growth (ranking) (microbial growth; [9]): 0
- MIT concentration displaying passing results (microbial growth; MIT alone, no guanidine enhancer): ≥ 30 ppm
